Assay results: patent US20230114728A1 (Venatorx Pharmaceuticals, Inc., priority 2019, published 2023)

Assays:
Test in all cases: Broth microdilution MIC in iron-depleted CAMHB (IDM)
Format in all cases: cell-based
A. baumannii ATCC 17978 = details: Acinetobacter baumannii, ATCC17978, read-out: Minimum Inhibitory Concentration, ATCC 17978
How it was run: (§1)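 CLSI broth microdilution in iron-depleted CAMHB (Chelex 100-treated, Ca, Mg and 10 μM Zn re-added, pH 7.3). Inoculum was 2-8×10^5 CFU/mL from 3-5 h IDM cultures. Plates were incubated at 37° C for 20-24 h (Acinetobacter) or 16-20 h (Pseudomonas), and MIC was read visually as the lowest concentration without growth.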

A. baumannii ATCC 19606 = details: Acinetobacter baumannii, ATCC19606, read-out: Minimum Inhibitory Concentration, ATCC 19606
How it was run: as §1

[1] = system: A. baumannii CDC-0033 producing NDM-1, and OXA-94; details: Acinetobacter baumannii, read-out: Minimum Inhibitory Concentration, CDC-0033
How it was run: as §1

[2] = system: A. baumannii CDC-0036 OXA-65, and OXA-24; details: Acinetobacter baumannii, read-out: Minimum Inhibitory Concentration, CDC-0036
How it was run: as §1

[3] = system: A. baumannii CDC-0083 producing NDM-1, PER-7, OXA-23, and OXA-69; details: Acinetobacter baumannii, read-out: Minimum Inhibitory Concentration, CDC-0083
How it was run: as §1

[4] = system: A. baumannii IL123 (ABΔ3-ARAEcPore); details: Acinetobacter baumannii, read-out: Minimum Inhibitory Concentration, IL-2123
How it was run: as §1

[5] = system: P. aeruginosa (ΔmexAB-oprM); details: Pseudomonas aeruginosa, read-out: Minimum Inhibitory Concentration, P. aeruginosa ΔmexAB-OprM
How it was run: as §1

P. aeruginosa ATCC 27853 = details: Pseudomonas aeruginosa, ATCC27853, read-out: Minimum Inhibitory Concentration, P. aeruginosa ATCC 27853
How it was run: as §1

P. aeruginosa ATCC 35151 = details: Pseudomonas aeruginosa, ATCC35151; iron-depleted MHB (IDM); hyper-permeable strain; read-out: Minimum Inhibitory Concentration, P. aeruginosa ATCC 35151
How it was run: as §1

[6] = system: P. aeruginosa CDC-0054 producing VIM-4, OXA-50, and PAO; details: Pseudomonas aeruginosa, read-out: Minimum Inhibitory Concentration, P. aeruginosa CDC-0054
How it was run: as §1

[7] = system: P. aeruginosa CDC-0090 producing KPC-5, OXA-50, and PAO; details: Pseudomonas aeruginosa, read-out: Minimum Inhibitory Concentration, P. aeruginosa CDC-0090
How it was run: as §1

[8] = system: P. aeruginosa CDC-0095 producing OXA-50, and PAO; details: Pseudomonas aeruginosa, read-out: Minimum Inhibitory Concentration, P. aeruginosa CDC-0095
How it was run: as §1

[9] = system: A. baumannii CDC-0045 producing TEM-1D, OXA-23, and OXA-69; details: Acinetobacter baumannii, read-out: Minimum Inhibitory Concentration, CDC-0045
P. aeruginosa CDC-0110 = details: Pseudomonas aeruginosa, CDC0110, read-out: Minimum Inhibitory Concentration, P. aeruginosa CDC-0110
How it was run: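 MIC is the lowest well showing no visible growth after 16-20 h at 37 °C, starting from 2-8×10^5 CFU/mL in 2-fold serial compound dilutions. Medium: cation-adjusted Mueller Hinton broth iron-depleted with Chelex 100, supplemented back with Ca, Mg and Zn, pH 7.3; CLSI protocol.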

Measured: MIC

O=C(O)c1ccc(C(NC(=O)c2ccc(O)c(O)c2Cl)C(=O)N[C@H]2Cc3cccc(C(=O)O)c3OB2O)cc1F (stereo partly drawn) [Example 7, (3R)-3-(2-(4-carboxy-3-fluorophenyl)-2-(2-chloro-3,4-dihydroxybenzamido)acetamido)-2-hydroxy-3,4-dihydro-2H-benzo[e][1,2]oxaborinine-8-carboxylic acid]
0.25 µg/mL: [5] | P. aeruginosa ATCC 35151
0.5 to 1 µg/mL: [7]
8 to 16 µg/mL: [8]
2 to 4 µg/mL: A. baumannii ATCC 17978 | P. aeruginosa ATCC 27853 | [6] | P. aeruginosa CDC-0110
32 to 64 µg/mL: all other assays above

O=C(NC(C(=O)N[C@H]1Cc2ccc(F)c(C(=O)O)c2OB1O)c1ncc(O)cc1F)c1ccc(O)c(O)c1Cl (stereo partly drawn) [Example 8, (3R)-3-(2-(2-chloro-3,4-dihydroxybenzamido)-2-(3-fluoro-5-hydroxypyridin-2-yl)acetamido)-7-fluoro-2-hydroxy-3,4-dihydro-2H-benzo[e][1,2]oxaborinine-8-carboxylic acid]
2 to 4 µg/mL: A. baumannii ATCC 17978 | [5] | [6] | [8]
0.5 to 1 µg/mL: P. aeruginosa ATCC 27853 | P. aeruginosa CDC-0110
0.25 µg/mL: P. aeruginosa ATCC 35151 | [7]
32 to 64 µg/mL: all other assays above

O=C(Nc1ccc(O)c(O)c1Cl)NC(C(=O)N[C@H]1Cc2ccc(F)c(C(=O)O)c2OB1O)c1ncc(O)cc1F (stereo partly drawn) [Example 9, (3R)-3-(2-(3-(2-chloro-3,4-dihydroxyphenyl)ureido)-2-(3-fluoro-5-hydroxypyridin-2-yl)acetamido)-7-fluoro-2-hydroxy-3,4-dihydro-2H-benzo[e][1,2]oxaborinine-8-carboxylic acid]
0.5 to 1 µg/mL: [5]
0.25 µg/mL: P. aeruginosa ATCC 35151
8 to 16 µg/mL: P. aeruginosa ATCC 27853
32 to 64 µg/mL: all other assays above

O=C(NC(C(=O)N[C@H]1Cc2ccc(F)c(C(=O)O)c2OB1O)c1ncc(O)cc1F)c1c(F)cc(O)c(O)c1Cl (stereo partly drawn) [Example 10, (3R)-3-(2-(2-chloro-6-fluoro-3,4-dihydroxybenzamido)-2-(3-fluoro-5-hydroxypyridin-2-yl)acetamido)-7-fluoro-2-hydroxy-3,4-dihydro-2H-benzo[e][1,2]oxaborinine-8-carboxylic acid]
0.25 µg/mL: P. aeruginosa ATCC 35151
2 to 4 µg/mL: [6] | [8]
0.5 to 1 µg/mL: [5] | P. aeruginosa ATCC 27853 | [7] | P. aeruginosa CDC-0110
32 to 64 µg/mL: all other assays above

CCN1CCN(C(=O)NC(C(=O)N[C@H]2Cc3ccc(F)c(C(=O)O)c3OB2O)c2c(F)cc(O)c(O)c2F)C(=O)C1=O (stereo partly drawn) [Example 36, (3R)-3-(2-(2,6-difluoro-3,4-dihydroxyphenyl)-2-(4-ethyl-2,3-dioxopiperazine-1-carboxamido)acetamido)-7-fluoro-2-hydroxy-3,4-dihydro-2H-benzo[e][1,2]oxaborinine-8-carboxylic acid]
8 to 16 µg/mL: [8]
0.25 µg/mL: A. baumannii ATCC 17978 | A. baumannii ATCC 19606 | [3] | [5] | P. aeruginosa ATCC 35151 | [9]
0.5 to 1 µg/mL: all other assays above

O=C(O)c1c(F)ccc2c1OB(O)[C@@H](NC(=O)C(NC(=O)N1CCN(CCF)C(=O)C1=O)c1c(F)cc(O)c(O)c1F)C2 (stereo partly drawn) [Example 37, (3R)-3-(2-(2,6-difluoro-3,4-dihydroxyphenyl)-2-(4-(2-fluoroethyl)-2,3-dioxopiperazine-1-carboxamido)acetamido)-7-fluoro-2-hydroxy-3,4-dihydro-2H-benzo[e][1,2]oxaborinine-8-carboxylic acid]
8 to 16 µg/mL: [8]
0.5 to 1 µg/mL: [3] | [9] | P. aeruginosa CDC-0110
0.25 µg/mL: A. baumannii ATCC 17978 | A. baumannii ATCC 19606 | [5] | P. aeruginosa ATCC 35151
2 to 4 µg/mL: all other assays above
